Experimental findings from ChEMBL document CHEMBL4406886, “Discovery of arylamide-5-anilinoquinazoline-8-nitro derivatives as VEGFR-2 kinase inhibitors: Synthesis, in vitro biological evaluation and molecular docking” (Bioorg Med Chem Lett, 2019) are described below.

Experiment [1] concerns the target T1, Vascular endothelial growth factor receptor 2 (Homo sapiens, UniProt P35968). The conditions noted are these: at 1 µM.
Description: Inhibition of VEGFR2 (unknown origin) at 1 uM using poly (Glu,Tyr) 4:1 as substrate measured after 1 hr in presence of ATP by spectrophotometric analysis relative to control
In the next experiment the test system is A549. Briefly: Antiproliferative activity against human A549 cells expressing EGFR assessed as cell growth inhibition measured after 48 hrs by MTT assay. In kind it is functional, cell-based. The conditions noted are these: A549, 48 h.
For experiment [2], the target named is Epidermal growth factor receptor (Homo sapiens) (UniProt P00533). As to the kind of experiment: Inhibition of EGFR (unknown origin) at 1 uM using poly (Glu,Tyr) 4:1 as substrate measured after 1 hr in presence of ATP by spectrophotometric analysis relative to control.
Chain of Epidermal growth factor receptor (Homo sapiens) (P00533 whole entry): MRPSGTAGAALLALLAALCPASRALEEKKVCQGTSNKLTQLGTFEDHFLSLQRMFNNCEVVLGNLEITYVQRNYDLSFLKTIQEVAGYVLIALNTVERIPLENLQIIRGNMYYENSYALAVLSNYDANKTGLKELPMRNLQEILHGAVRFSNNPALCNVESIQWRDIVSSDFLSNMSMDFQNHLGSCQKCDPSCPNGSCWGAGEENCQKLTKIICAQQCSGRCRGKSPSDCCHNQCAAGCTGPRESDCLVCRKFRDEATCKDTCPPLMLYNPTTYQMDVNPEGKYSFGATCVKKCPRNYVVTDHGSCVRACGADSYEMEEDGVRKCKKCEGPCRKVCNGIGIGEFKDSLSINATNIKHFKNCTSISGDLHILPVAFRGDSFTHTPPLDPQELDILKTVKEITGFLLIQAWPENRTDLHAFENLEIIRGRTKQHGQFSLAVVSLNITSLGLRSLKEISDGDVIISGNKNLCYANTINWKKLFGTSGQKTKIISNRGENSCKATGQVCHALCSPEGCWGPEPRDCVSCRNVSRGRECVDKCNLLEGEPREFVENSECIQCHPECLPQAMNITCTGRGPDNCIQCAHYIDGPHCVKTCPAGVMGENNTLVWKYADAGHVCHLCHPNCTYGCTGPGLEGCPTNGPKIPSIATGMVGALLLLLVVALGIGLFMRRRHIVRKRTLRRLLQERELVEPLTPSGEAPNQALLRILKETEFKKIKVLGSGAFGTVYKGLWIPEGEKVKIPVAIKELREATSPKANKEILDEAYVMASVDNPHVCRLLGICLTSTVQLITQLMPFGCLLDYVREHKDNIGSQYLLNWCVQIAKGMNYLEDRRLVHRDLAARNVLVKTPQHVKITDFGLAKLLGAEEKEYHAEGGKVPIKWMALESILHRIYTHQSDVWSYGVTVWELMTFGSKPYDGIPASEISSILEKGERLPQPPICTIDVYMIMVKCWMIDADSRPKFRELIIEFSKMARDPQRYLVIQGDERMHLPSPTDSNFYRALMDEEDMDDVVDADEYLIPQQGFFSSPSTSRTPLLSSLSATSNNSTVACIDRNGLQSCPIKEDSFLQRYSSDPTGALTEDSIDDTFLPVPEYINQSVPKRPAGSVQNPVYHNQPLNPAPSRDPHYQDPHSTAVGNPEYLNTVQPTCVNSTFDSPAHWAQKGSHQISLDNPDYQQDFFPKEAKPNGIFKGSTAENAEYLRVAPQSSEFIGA
The subject of the next experiment is HepG2. Briefly: Antiproliferative activity against human HepG2 cells expressing VEGFR2 assessed as cell growth inhibition measured after 48 hrs by MTT assay. In kind it is functional, cell-based. The conditions noted are these: HepG2, 48 h. For orientation: Tetrazolium dyes change colour on reduction, which living cells bring about.
In a further experiment the test system is HUVEC. Briefly: Antiproliferative activity against human HUVEC cells expressing VEGFR2 assessed as cell growth inhibition measured after 48 hrs by MTT assay. In kind it is functional, cell-based.
The test system of the next experiment is MDA-MB-231. As to the kind of experiment: Antiproliferative activity against human MDA-MB-231 cells expressing EGFR assessed as cell growth inhibition measured after 48 hrs by MTT assay. In kind it is functional, cell-based. The conditions noted are these: MDA-MB-231, 48 h.
In another experiment the test system is Chorioallantoic membrane. Briefly: Antiangiogenic activity in chicken fertilized egg chorioallantoic membrane assessed as decrease in blood vessel growth at 10 nM measured after 48 hrs by microscopic analysis. In kind it is functional, tissue-based. The conditions noted are these: Gallus gallus.
The next experiment deals with L02. As to the kind of experiment: Cytotoxicity against human LO2 cells. In kind it is cell-based.
Experiment [3] deals with T1, Vascular endothelial growth factor receptor 2. Briefly: Inhibition of VEGFR2 (unknown origin) using poly (Glu,Tyr) 4:1 as substrate measured after 1 hr in presence of ATP by spectrophotometric analysis.

Calls of active or inactive are those of the source. The rule behind the calls is not given here.

T1 sequence (P35968 whole entry): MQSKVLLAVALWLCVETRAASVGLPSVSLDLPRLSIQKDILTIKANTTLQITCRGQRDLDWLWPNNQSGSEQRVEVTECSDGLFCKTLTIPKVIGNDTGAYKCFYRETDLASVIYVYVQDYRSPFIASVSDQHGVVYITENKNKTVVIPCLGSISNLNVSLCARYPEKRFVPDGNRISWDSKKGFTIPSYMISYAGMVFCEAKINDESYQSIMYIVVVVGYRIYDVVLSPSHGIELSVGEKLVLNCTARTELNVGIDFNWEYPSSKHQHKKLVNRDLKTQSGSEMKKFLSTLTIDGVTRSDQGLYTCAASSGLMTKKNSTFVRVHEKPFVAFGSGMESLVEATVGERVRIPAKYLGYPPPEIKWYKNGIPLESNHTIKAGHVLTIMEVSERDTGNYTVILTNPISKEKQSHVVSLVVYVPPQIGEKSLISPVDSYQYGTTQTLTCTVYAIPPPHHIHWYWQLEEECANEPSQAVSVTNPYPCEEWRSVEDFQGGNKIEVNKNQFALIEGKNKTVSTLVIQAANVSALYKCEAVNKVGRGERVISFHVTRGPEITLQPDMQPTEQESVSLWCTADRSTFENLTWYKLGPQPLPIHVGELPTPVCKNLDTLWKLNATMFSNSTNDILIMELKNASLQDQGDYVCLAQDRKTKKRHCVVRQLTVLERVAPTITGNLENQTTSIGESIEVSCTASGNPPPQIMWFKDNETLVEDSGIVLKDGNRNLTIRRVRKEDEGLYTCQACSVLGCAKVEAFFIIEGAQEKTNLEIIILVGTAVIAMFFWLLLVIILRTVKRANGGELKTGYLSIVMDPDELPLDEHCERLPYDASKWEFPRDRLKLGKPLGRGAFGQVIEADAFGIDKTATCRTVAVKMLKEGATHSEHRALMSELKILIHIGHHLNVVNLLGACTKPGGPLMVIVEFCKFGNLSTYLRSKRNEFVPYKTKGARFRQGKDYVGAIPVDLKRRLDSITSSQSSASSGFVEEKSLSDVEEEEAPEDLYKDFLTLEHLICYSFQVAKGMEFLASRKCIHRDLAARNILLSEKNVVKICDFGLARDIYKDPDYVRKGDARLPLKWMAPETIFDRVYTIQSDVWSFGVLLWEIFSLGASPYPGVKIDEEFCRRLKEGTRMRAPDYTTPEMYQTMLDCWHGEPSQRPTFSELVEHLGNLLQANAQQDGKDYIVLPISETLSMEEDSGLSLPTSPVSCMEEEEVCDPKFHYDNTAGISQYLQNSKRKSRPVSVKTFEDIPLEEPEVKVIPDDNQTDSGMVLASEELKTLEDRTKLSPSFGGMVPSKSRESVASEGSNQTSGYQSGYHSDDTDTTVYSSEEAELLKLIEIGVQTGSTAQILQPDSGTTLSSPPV

The inhibition is the change of the read-out against control, counted positive when it falls. As a reminder, the IC50 is the concentration that gives 50% inhibition. `O=C(Nc1cccc(Nc2ccc([N+](=O)[O-])c3ncnc(O)c23)c1)c1ccc(Cl)cc1`: the inhibition in [1] stood at 38.5%; in experiment [2], 9.4%. Besides, the IC50 was > 100 µM in the experiment with A549, 76.3 µM with HepG2, 73.8 µM with HUVEC and > 100 µM in the experiment with MDA-MB-231.

`O=C(Nc1cccc(Nc2ccc([N+](=O)[O-])c3ncnc(O)c23)c1)c1cccc(Cl)c1`: the inhibition stood at 29.2% in experiment [1] and 26.3% in [2]. Moreover, the half-inhibitory concentration (IC50) with A549 is > 100 µM; in the experiment on HepG2, 93 µM; in the experiment with HUVEC, 86.5 µM; in the experiment with MDA-MB-231, > 100 µM.

Take `COc1ccccc1C(=O)Nc1cccc(Nc2ccc([N+](=O)[O-])c3ncnc(O)c23)c1`: the inhibition in experiment [1] came out at 26.9%; in experiment [2], 12.4%. In addition, the IC50 in the experiment on A549 was > 100 µM; in the experiment on HepG2 it was 90.3 µM; in the experiment on HUVEC, 82 µM; in the experiment with MDA-MB-231, > 100 µM.

Take `Cc1ccc(C(=O)Nc2cccc(Nc3ccc([N+](=O)[O-])c4ncnc(O)c34)c2)cc1`: the figures for the inhibition in experiment [1] and in experiment [2] were 32.7% and 12.8%, respectively. Besides, the IC50 was > 100 µM in the experiment on A549, 74 µM in the experiment on HepG2, 80.5 µM in the experiment with HUVEC and > 100 µM in the experiment on MDA-MB-231.

For `O=C(Nc1cccc(Nc2ccc([N+](=O)[O-])c3ncnc(O)c23)c1)c1ccccc1Cl`, the inhibition in experiment [1] came to 30.1%; in [2], 22.5%. Also, the 50% inhibitory concentration (IC50) with A549 was > 100 µM; in the experiment with HepG2 it was 71.9 µM; in the experiment on HUVEC, 74.6 µM; in the experiment on MDA-MB-231, > 100 µM.

With `Cc1cccc(C(=O)Nc2ccc(Nc3ccc([N+](=O)[O-])c4ncnc(O)c34)cc2)c1`, the inhibition in experiment [1] amounted to 58.2%; in [2] it was 37.8%. For the same compound, the IC50 with A549 was > 100 µM; with HepG2 it was 40.8 µM; in the experiment with HUVEC, 47 µM; with MDA-MB-231, > 100 µM.

`O=C(Nc1cccc(Nc2ccc([N+](=O)[O-])c3ncnc(O)c23)c1)c1ccc(F)cc1`: the inhibition in experiment [1] worked out at 41.9%; in experiment [2], 18.5%. For the same compound, the IC50 is 95 µM in the experiment with A549, 68.5 µM in the experiment on HepG2, 63.2 µM in the experiment on HUVEC and > 100 µM with MDA-MB-231.

With `O=C(Nc1ccc(Nc2ccc([N+](=O)[O-])c3ncnc(O)c23)cc1)c1ccccc1F`, the inhibition is 73.8% in experiment [1] and 42.1% in experiment [2]. For the same compound, the half-inhibitory concentration (IC50) with A549 worked out at 85.8 µM; in the experiment on HepG2 it was 21 µM; with HUVEC, 23.8 µM; in the experiment on MDA-MB-231, 93.2 µM. The result with Chorioallantoic membrane was Active.

Take `O=C(Nc1ccc(Nc2ccc([N+](=O)[O-])c3ncnc(O)c23)cc1)c1cccc(Cl)c1`: the inhibition in [1] is 63.2%; in experiment [2], 27.7%. Moreover, the IC50 is > 100 µM in the experiment on A549, 42 µM in the experiment with HepG2, 36.7 µM in the experiment on HUVEC and > 100 µM in the experiment on MDA-MB-231. In the experiment with Chorioallantoic membrane, the result was Active.

`O=C(Nc1cccc(Nc2ccc([N+](=O)[O-])c3ncnc(O)c23)c1)c1ccccc1F`: the figures for the inhibition in [1] and in [2] were 35.8% and 17.2%, respectively. Further, the IC50 with A549 was > 100 µM; in the experiment on HepG2 it was 69.6 µM; with HUVEC it was 70.4 µM; in the experiment with MDA-MB-231, > 100 µM.

As for `O=C(Nc1ccc(Nc2ccc([N+](=O)[O-])c3ncnc(O)c23)cc1)c1ccccc1Cl`, the inhibition turned out to be 76.9% in [1] and 50.3% in [2]. In addition, the IC50 came to 90.3 µM in the experiment with A549, 28 µM in the experiment with HepG2, 26.5 µM in the experiment on HUVEC and 96.1 µM in the experiment on MDA-MB-231. In the experiment on Chorioallantoic membrane, the outcome was Active.

Consider `Cc1ccccc1C(=O)Nc1ccc(Nc2ccc([N+](=O)[O-])c3ncnc(O)c23)cc1`, for which the inhibition in [1] was found to be 65.8%; in experiment [2] it was 41.7%. Further, the IC50 is 91.6 µM in the experiment on A549, 30.1 µM with HepG2, 37.2 µM in the experiment with HUVEC and > 100 µM in the experiment with MDA-MB-231.

Regarding `O=C(Nc1cccc(Nc2ccc([N+](=O)[O-])c3ncnc(O)c23)c1)c1ccccc1`, the inhibition stood at 37.8% in experiment [1] and 15.4% in [2]. Besides, the IC50 was > 100 µM in the experiment with A549, 75.2 µM in the experiment on HepG2, 79.1 µM with HUVEC and > 100 µM with MDA-MB-231.

For `Cc1cccc(C(=O)Nc2cccc(Nc3ccc([N+](=O)[O-])c4ncnc(O)c34)c2)c1`, the inhibition amounted to 18% in experiment [1] and 11.3% in [2]. The IC50 is > 100 µM with A549, > 100 µM in the experiment on HepG2, 93.6 µM in the experiment on HUVEC and > 100 µM with MDA-MB-231.

For `Cc1ccc(C(=O)Nc2ccc(Nc3ccc([N+](=O)[O-])c4ncnc(O)c34)cc2)cc1`, the inhibition in experiment [1] was 83.7%; in experiment [2] it was 57.2%. Besides, the IC50 was 93.2 µM in the experiment with L02; > 100 µM in the experiment on A549; 18.5 µM in the experiment with HepG2; 14.3 µM in the experiment with HUVEC; 94.7 µM in the experiment on MDA-MB-231. The result with Chorioallantoic membrane was Active.

As to `O=C(Nc1cccc(Nc2ccc([N+](=O)[O-])c3ncnc(O)c23)c1)c1cccc(F)c1`, the inhibition in [1] was 38.1%; in experiment [2], 27.3%. For the same compound, the IC50 in the experiment on A549 is > 100 µM; in the experiment on HepG2, 72.1 µM; in the experiment with HUVEC, 74.2 µM; in the experiment on MDA-MB-231, > 100 µM.

As for `O=C(Nc1ccc(Nc2ccc([N+](=O)[O-])c3ncnc(O)c23)cc1)c1cccc(F)c1`, the values for the inhibition in experiment [1] and in experiment [2] were 69.4% and 36.9%, respectively. For the same compound, the concentration for half-maximal inhibition (IC50) in the experiment on A549 was 83.3 µM; in the experiment with HepG2 it was 36.1 µM; in the experiment on HUVEC, 38.9 µM; with MDA-MB-231 it was > 100 µM. In the experiment on Chorioallantoic membrane, the outcome was Active.

For the compound `O=C(Nc1ccc(Nc2ccc([N+](=O)[O-])c3ncnc(O)c23)cc1)c1ccccc1`, the inhibition in [1] came out at 92.4%; in experiment [2] it was 53.8%. The 50% inhibitory concentration (IC50) in the experiment on L02 came to 65.3 µM; in the experiment on A549, 87.4 µM; in [3], 0.735 µM; with HepG2, 7.41 µM; in the experiment on HUVEC, 5.7 µM; in the experiment with MDA-MB-231, 86.3 µM. Moreover, in the experiment with Chorioallantoic membrane, the result was Active.

Turning to `Cc1ccc(C(=O)Nc2ccc(CN3CCN(C)CC3)c(C(F)(F)F)c2)cc1C#Cc1cnc2cccnn12` [PONATINIB], the concentration for half-maximal inhibition (IC50) in the experiment with L02 was 64.7 µM; in the experiment on A549, 5.3 µM; with HepG2, 0.6 µM; in the experiment on HUVEC, 0.5 µM; in the experiment on MDA-MB-231, 10.5 µM.

As to `CNC(=O)c1cc(Oc2ccc(NC(=O)Nc3ccc(Cl)c(C(F)(F)F)c3)cc2)ccn1` [SORAFENIB], the IC50 in the experiment on L02 worked out at 72.9 µM; in the experiment on A549, 8.1 µM; in the experiment with HepG2, 3.6 µM; with HUVEC it was 4.1 µM; in the experiment on MDA-MB-231, 15.8 µM. Besides, the outcome with Chorioallantoic membrane was Active.

For `O=C(Nc1ccc(Nc2ccc([N+](=O)[O-])c3ncnc(O)c23)cc1)Nc1cc(C(F)(F)F)ccc1Cl`, the inhibition in experiment [1] was 102%; in [2] it was 21.8%. In addition, the IC50 is 84.2 µM with L02; > 100 µM in the experiment on A549; 0.0154 µM in [3]; 13.7 µM in the experiment with HepG2; 2.1 µM with HUVEC; > 100 µM with MDA-MB-231.

For `O=C(Nc1ccc(Nc2ccc([N+](=O)[O-])c3ncnc(O)c23)cc1)c1ccc(Cl)cc1`, the inhibition in experiment [1] was found to be 97.9%; in experiment [2], 64.1%. The IC50 with L02 came to 73.5 µM; in the experiment on A549, 83 µM; in [3], 0.363 µM; in the experiment with HepG2, 0.9 µM; with HUVEC, 1.6 µM; with MDA-MB-231, 95.1 µM. Moreover, the outcome in the experiment with Chorioallantoic membrane was Active.

In the case of `Cc1ccccc1C(=O)Nc1cccc(Nc2ccc([N+](=O)[O-])c3ncnc(O)c23)c1`, the inhibition worked out at 21.6% in [1] and 6.4% in experiment [2]. Besides, the IC50 with A549 was > 100 µM; in the experiment on HepG2, 90.3 µM; in the experiment on HUVEC it was 89.6 µM; with MDA-MB-231, > 100 µM.

Turning to `COc1cccc(C(=O)Nc2ccc(Nc3ccc([N+](=O)[O-])c4ncnc(O)c34)cc2)c1`, the inhibition in [1] amounted to 47.6%; in experiment [2], 36.7%. Further, the IC50 is > 100 µM in the experiment with A549, 64.2 µM in the experiment with HepG2, 57.8 µM in the experiment with HUVEC and > 100 µM in the experiment on MDA-MB-231.

Consider `COc1ccccc1C(=O)Nc1ccc(Nc2ccc([N+](=O)[O-])c3ncnc(O)c23)cc1`, for which the inhibition in experiment [1] was 60.3%; in [2], 43.6%. Besides, the IC50 in the experiment with A549 is > 100 µM; in the experiment with HepG2 it was 40.7 µM; in the experiment on HUVEC, 36.3 µM; in the experiment with MDA-MB-231, 95.8 µM.
